From article PMC8383264, “Structural Characterization of the Reaction and Substrate Specificity Mechanisms of Pathogenic Fungal Acetyl-CoA Synthetases” (ACS Chemical Biology, 2021)

Columns and labels:
[1] = system: CC(C)(COP(=O)(O)OP(=O)(O)OC[C@H]1O[C@@H](n2cnc3c(N)ncnc32)[C@H](O)[C@@H]1OP(=O)(O)O)[C@@H](O)C(=O)NCCC(=O)NCCS; experiment: purified protein, by the assay type
[2] = system: Nc1ncnc2c1ncn2[C@@H]1O[C@H](COP(=O)(O)OP(=O)(O)OP(=O)(O)O)[C@@H](O)[C@H]1O; experiment: purified protein, by the assay type; settings: 37.0 °C
[3] = target: T1, CnAcs1 (Cryptococcus neoformans, UniProt J9VFT1); experiment: Coupled continuous pyrophosphate detection assay (EnzChek) of ACS activity; settings: for utilization as substrate for CnAcs1: alternative acid substrates
[4] = target: T1, CnAcs1; experiment: biochemical; type: binding; settings: read-out: thermal shift (ΔTm)
[5] = target: C. albicans Acs1 (Candida albicans, UniProt Q8NJN3); experiment: Coupled continuous pyrophosphate detection assay (EnzChek) of ACS activity
Chain of C. albicans Acs1 (Q8NJN3 2-671 limits assumed): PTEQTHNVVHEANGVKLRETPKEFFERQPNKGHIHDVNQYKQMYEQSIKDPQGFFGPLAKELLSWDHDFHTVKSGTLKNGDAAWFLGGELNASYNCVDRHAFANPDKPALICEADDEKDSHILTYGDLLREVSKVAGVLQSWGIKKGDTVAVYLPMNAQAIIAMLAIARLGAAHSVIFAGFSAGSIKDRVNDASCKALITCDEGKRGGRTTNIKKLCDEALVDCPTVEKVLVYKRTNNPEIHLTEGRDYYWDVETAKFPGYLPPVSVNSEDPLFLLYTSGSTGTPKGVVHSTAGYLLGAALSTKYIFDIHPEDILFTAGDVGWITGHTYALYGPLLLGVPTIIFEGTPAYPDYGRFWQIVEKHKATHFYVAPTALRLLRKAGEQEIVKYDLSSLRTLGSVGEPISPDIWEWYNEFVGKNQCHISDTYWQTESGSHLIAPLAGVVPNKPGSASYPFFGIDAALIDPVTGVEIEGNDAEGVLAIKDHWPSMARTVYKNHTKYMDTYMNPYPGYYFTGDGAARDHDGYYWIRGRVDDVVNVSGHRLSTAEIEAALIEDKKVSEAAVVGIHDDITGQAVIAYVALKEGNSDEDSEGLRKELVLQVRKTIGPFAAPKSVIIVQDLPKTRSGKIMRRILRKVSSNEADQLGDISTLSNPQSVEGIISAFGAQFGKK

[6] = target: T2, A. fumigatus Acs1 (Aspergillus fumigatus, UniProt Q4WQ02); experiment: as above
T2 sequence (Q4WQ02 2-670): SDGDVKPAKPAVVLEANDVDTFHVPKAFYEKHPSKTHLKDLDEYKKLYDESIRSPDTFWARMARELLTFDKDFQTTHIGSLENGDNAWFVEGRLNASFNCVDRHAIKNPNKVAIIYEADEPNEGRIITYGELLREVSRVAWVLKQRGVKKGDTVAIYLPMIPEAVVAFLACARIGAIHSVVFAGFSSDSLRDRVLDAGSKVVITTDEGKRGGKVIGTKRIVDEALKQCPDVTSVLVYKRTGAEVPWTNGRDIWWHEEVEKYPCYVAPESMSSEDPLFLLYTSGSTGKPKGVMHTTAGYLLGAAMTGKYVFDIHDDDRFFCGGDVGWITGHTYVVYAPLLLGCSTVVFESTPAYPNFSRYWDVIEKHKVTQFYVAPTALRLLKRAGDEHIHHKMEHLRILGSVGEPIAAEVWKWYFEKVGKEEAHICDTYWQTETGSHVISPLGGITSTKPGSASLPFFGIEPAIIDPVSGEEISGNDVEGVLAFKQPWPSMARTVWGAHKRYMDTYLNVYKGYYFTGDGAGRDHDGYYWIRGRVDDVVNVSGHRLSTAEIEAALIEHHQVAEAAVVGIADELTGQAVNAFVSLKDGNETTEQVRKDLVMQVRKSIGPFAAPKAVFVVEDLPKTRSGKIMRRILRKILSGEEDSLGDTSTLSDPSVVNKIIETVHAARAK

[7] = target: C. immitis Acs1 (Coccidioides immitis, UniProt J3KJC6); experiment: biochemical
Chain of C. immitis Acs1 (J3KJC6 2-691 limits assumed): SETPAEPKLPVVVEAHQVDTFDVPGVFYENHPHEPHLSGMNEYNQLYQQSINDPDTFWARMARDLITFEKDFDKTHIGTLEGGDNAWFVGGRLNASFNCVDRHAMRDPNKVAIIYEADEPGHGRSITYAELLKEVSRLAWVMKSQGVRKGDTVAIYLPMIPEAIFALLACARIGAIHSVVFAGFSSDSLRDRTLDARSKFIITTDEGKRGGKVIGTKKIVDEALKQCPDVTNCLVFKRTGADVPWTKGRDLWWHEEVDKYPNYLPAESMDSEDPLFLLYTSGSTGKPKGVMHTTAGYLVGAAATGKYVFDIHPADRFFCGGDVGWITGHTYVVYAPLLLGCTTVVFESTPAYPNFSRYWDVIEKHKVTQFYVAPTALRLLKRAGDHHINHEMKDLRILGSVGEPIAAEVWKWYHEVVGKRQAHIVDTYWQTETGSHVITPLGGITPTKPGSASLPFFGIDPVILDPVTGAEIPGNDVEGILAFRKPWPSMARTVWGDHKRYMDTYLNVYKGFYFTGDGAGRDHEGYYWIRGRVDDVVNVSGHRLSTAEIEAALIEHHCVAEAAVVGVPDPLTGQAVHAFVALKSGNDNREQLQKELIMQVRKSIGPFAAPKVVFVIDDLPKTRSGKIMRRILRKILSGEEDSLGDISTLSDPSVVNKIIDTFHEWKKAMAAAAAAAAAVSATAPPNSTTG

[8] = target: C. posadasii Acs1 (Coccidioides posadasii, UniProt C5PGB4); experiment: biochemical
Chain of C. posadasii Acs1 (C5PGB4 2-691 limits assumed): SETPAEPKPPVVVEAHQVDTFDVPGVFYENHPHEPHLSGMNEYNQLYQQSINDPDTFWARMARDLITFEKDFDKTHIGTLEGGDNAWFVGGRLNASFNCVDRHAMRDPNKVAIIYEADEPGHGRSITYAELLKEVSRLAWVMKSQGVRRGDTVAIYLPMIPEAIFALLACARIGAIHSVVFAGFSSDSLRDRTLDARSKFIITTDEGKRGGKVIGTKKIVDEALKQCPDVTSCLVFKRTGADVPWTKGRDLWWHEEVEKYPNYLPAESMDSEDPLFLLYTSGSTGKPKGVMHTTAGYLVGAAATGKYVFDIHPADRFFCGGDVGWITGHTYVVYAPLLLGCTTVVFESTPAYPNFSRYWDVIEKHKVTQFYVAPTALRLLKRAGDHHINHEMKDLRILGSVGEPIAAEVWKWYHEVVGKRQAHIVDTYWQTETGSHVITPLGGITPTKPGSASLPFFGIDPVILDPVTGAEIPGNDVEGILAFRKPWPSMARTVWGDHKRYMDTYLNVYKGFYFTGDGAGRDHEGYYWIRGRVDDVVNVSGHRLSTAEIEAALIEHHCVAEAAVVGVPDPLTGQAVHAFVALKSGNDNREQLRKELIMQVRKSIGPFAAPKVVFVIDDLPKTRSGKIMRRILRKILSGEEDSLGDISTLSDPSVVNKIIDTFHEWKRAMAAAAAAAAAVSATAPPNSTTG

[9] = substrate: CC(C)(COP(=O)(O)OP(=O)(O)OC[C@H]1O[C@@H](n2cnc3c(N)ncnc32)[C@H](O)[C@@H]1OP(=O)(O)O)[C@@H](O)C(=O)NCCC(=O)NCCS; experiment: purified protein, by the assay type; settings: 37 °C, ±S.E.M.
[10] = substrate: Nc1ncnc2c1ncn2[C@@H]1O[C@H](COP(=O)(O)OP(=O)(O)OP(=O)(O)O)[C@@H](O)[C@H]1O; experiment: purified protein, by the assay type; settings: 37 °C, ±S.E.M.
[11] = other: substrate Km, other substrates in excess (ATP 2.5 mM, CoA 1 mM, sodium acetate 0.5 mM)
[12] = other: substrate Km, other substrates in excess
[13] = other: commercially available enzyme, control, other substrates in excess

Molecule: C. posadasii Acs1 (Coccidioides posadasii C735 delta SOWgp)
- Km ([1]; 37.0 °C): 314 ± 32 µM
- Km [2]: 117 ± 15 µM

Molecule: C. immitis Acs1 (Coccidioides immitis RS)
- Km ([1]; 37.0 °C): 441 ± 45 µM
- Km [2]: 102 ± 8 µM

Molecule: CCCCC(=O)O [valerate, reference compound]
- utilization as substrate for CnAcs1 [3]: neither valerate nor butyrate were CnAcs1 substrates

Molecule: C. albicans Acs1 (Candida albicans SC5314)
- Km ([1]; other: substrate Km, other substrates in excess, 37 °C, ±S.E.M.): 471 ± 45 µM

Molecule: Nc1ncnc2c1ncn2[C@@H]1O[C@H](COS(N)(=O)=O)[C@@H](O)[C@H]1O [AMS, adenosine monosulfonamide]
- ΔTm at 1000 µM [4]: -0.2 °C
- Ki [3]: > 50000 nM

Molecule: Nc1ncnc2c1ncn2[C@@H]1O[C@H](COP(=O)(O)OP(=O)(O)OP(=O)(O)O)[C@@H](O)[C@H]1O [ATP, adenosine triphosphate, reference compound]
- calculated binding energy ΔG [3]: -6 kcal/mol

Molecule: CC(=O)NS(=O)(=O)OC[C@H]1O[C@@H](n2cnc3c(N)ncnc32)[C@H](O)[C@@H]1O [acyl-AMS, acetyl-adenosine monosulfonamide]
- Ki [3]: 590 nM

Molecule: CCCCOP(=O)(O)OC[C@H]1O[C@@H](n2cnc3c(N)ncnc32)[C@H](O)[C@@H]1O [butyl-AMP]
- ΔTm at 1000 µM [4]: 6.7 °C
- IC50 [5]: > 50000 nM
- IC50 [6]: > 50000 nM
- IC50 [3]: > 50000 nM
- Ki [3]: > 50000 nM
- inhibition of CnAcs1 [3]: no inhibition

Molecule: COP(=O)(O)OC[C@H]1O[C@@H](n2cnc3c(N)ncnc32)[C@H](O)[C@@H]1O [methyl-AMP]
- ΔTm at 1000 µM [4]: 8.3 °C
- Ki [3]: 39000 ± 11000 nM
- fold less active than ethyl AMP ester [3]: ~100 fold

Molecule: NCC(=O)NS(=O)(=O)OCC1OC(n2cnc3c(N)ncnc32)C(O)C1O (centres unmarked) [glycine derivative of AMS]
- inhibition of CnAcs1 [3]: no inhibition

Molecule: CCCOP(=O)(O)OC[C@H]1O[C@@H](n2cnc3c(N)ncnc32)[C@H](O)[C@@H]1O [propyl-AMP, propyl-adenosine monophosphate ester]
- ΔTm at 1000 µM [4]: 12.2 °C
- Ki [3]: 1240 ± 200 nM

Molecule: CCC(=O)O [propionate, reference compound]
- Km fold higher than acetate ([3]; alternative acid substrate, relative to acetate): > 100 fold

Molecule: CCOP(=O)(O)OC[C@H]1O[C@@H](n2cnc3c(N)ncnc32)[C@H](O)[C@@H]1O [ethyl-AMP]
- ΔTm at 1000 µM [4]: 14.2 °C
- IC50 [7]: 60 nM
- IC50 [5]: 290 nM
- IC50 [8]: 70 nM
- IC50 [6]: 60 nM
- IC50 [3]: 2100 nM
- Ki [3]: 470 nM

Molecule: CCCC(=O)O [butyrate, reference compound]
- utilization as substrate for CnAcs1 [3]: neither valerate nor butyrate were CnAcs1 substrates
- inhibition of acetate utilization ([3]; non-preferred acid substrate): does not inhibit

B1: CnAcs1 (Cryptococcus neoformans H99) (protein)
chain: GKTEVAPGVHHVHPLPDSVPESEDLFAPPPRMQGKEGRPKPHIGPNYESYVKEWAKTVGPNSDEWWAAKARETLDWYDDFKTVRAGGFEHGDVQWFPEGTLNAAYNCLDRHYYKNPKKTAIIYEADEPSESREVSYEELMQETCRVANVLKSYGVKKGDAVSIYLPMTWQAAAAFLACARIGAIHSAVFAGFSAESLRDRVNDCECKVLITTDEGRRGGKTIATKQIVDAALQQCPLVENVLVLRRTGNKVPMTEGRDKWWDEECAKMPAYCPCERMASEDPLFILYTSGSTGKPKGVVHSTAGYLLGTALTLKYVFDAHPDDRFACMADIGWITGHSYIIYGPLANGITTAVFESTPVYPTPSRYWDFVDKWKATQLYTAPTAIRLLRRMGEDHVKNHDLSSLRVLGSVGEPINPEAWHWYNDFAGKNQCAIVDTYWMTETGSISIAPLPGAISTKPGSATFPFFGMDVDIIDPQTGQVLEGNDVEGVLVARRPWPSIARTVYRDHKRYLETYMKPYPGYFFFGDGAARDYDGYMWIKGRVDDVINVSGHRLSTAEVESALILHKGVAETAVVGCADDLTGQAVYAFVTMKPEFDLKATKEADLSKELAIQVRKVIGPFAAPKKIYLVSDLPKTRSGKIMRRVLRKIVAGEGDQLGDLSSIADPQIVEEVKQKVTGSA
- Km [9, 11]: 880 ± 170 µM
- Km [10, 11]: 59 ± 10 µM

B2: A. fumigatus Acs1 (Aspergillus fumigatus Af293) (protein)
chain: T2 sequence (Q4WQ02 2-670)
- Km [9, 12]: 340 ± 26 µM
- Km [10, 12]: 42 ± 11 µM

B3: S. cerevisiae Acs1 (Saccharomyces cerevisiae S288C) (protein)
chain: MSPSAVQSSKLEEQSSEIDKLKAKMSQSAATAQQKKEHEYEHLTSVKIVPQRPISDRLQPAIATHYSPHLDGLQDYQRLHKESIEDPAKFFGSKATQFLNWSKPFDKVFIPDPKTGRPSFQNNAWFLNGQLNACYNCVDRHALKTPNKKAIIFEGDEPGQGYSITYKELLEEVCQVAQVLTYSMGVRKGDTVAVYMPMVPEAIITLLAISRIGAIHSVVFAGFSSNSLRDRINDGDSKVVITTDESNRGGKVIETKRIVDDALRETPGVRHVLVYRKTNNPSVAFHAPRDLDWATEKKKYKTYYPCTPVDSEDPLFLLYTSGSTGAPKGVQHSTAGYLLGALLTMRYTFDTHQEDVFFTAGDIGWITGHTYVVYGPLLYGCATLVFEGTPAYPNYSRYWDIIDEHKVTQFYVAPTALRLLKRAGDSYIENHSLKSLRCLGSVGEPIAAEVWEWYSEKIGKNEIPIVDTYWQTESGSHLVTPLAGGVTPMKPGSASFPFFGIDAVVLDPNTGEELNTSHAEGVLAVKAAWPSFARTIWKNHDRYLDTYLNPYPGYYFTGDGAAKDKDGYIWILGRVDDVVNVSGHRLSTAEIEAAIIEDPIVAECAVVGFNDDLTGQAVAAFVVLKNKSSWSTATDDELQDIKKHLVFTVRKDIGPFAAPKLIILVDDLPKTRSGKIMRRILRKILAGESDQLGDVSTLSNPGIVRHLIDSVKL
- Km [9, 13]: 348 ± 43 µM
- Km [10, 13]: 161 ± 73 µM
